Laboratory results reported in patent publication US9580330B2, “Anhydrous, amorphous and porous magnesium carbonates and methods of production thereof” (DISRUPTIVE MATERIALS AB, priority 2012, dated 2017).

Columns and labels:
[1] = Thermal gravimetric analysis (TGA) of Example 28 samples; format: physicochemical; details: air flow, 3 K min^−1
Experimental: Thermal gravimetric analysis (TGA) was carried out on a Mettler Toledo, model TGA/SDTA851e, under an air flow in an inert alumina cup. The samples were heated from room temperature to 600° C. with a heating rate of 3 K min^−1.

[2] = Drug release measurement, USP-2 dissolution bath; format: physicochemical; details: phosphate buffer pH 6.8, 37° C., 50 rpm, 17.5 mg ibuprofen in 500 mL
Experimental: Drug Release Measurement: The release of ibuprofen was carried out in a USP-2 dissolution bath (Sotax AT7 Smart, Sotax AG, Switzerland) equipped with 1000 mL vessels (37° C., 50 rpm). Samples with a total drug content of 17.5 mg ibuprofen were placed in vessels containing 500 mL phosphate buffer (pH=6.8). […] Aliquots of 3 mL were withdrawn from each vessel at regular intervals for 125 min and the drug concentration in the liquid samples was analysed using UV/vis absorbance spectroscopy (1650PC, Shimadzu Corporation, Kyoto, Japan).

decomposition temperature of ibuprofen [1]: about 200 °C
time until about 50% of the ibuprofen is dissolved [2]: about 30 minutes
Compound: CC(C)Cc1ccc(C(C)C(=O)O)cc1 (centres unmarked) [free ibuprofen, ibuprofen]
